Laboratory results: patent publication US7446199B2, “Compositions useful as inhibitors of protein kinases” (Vertex Pharmaceuticals Incorporated, priority 2003, dated 2008)

How the values were obtained:
JAK3 = target: T1, JAK3 (Homo sapiens, UniProt P52333); experiment: JAK3 inhibition assay (ELISA, Poly (Glu, Ala, Tyr) coated plates); format: biochemical; details: 2 mM ATP, 60 minutes at 30° C.
T1 sequence (P52333 1-1124): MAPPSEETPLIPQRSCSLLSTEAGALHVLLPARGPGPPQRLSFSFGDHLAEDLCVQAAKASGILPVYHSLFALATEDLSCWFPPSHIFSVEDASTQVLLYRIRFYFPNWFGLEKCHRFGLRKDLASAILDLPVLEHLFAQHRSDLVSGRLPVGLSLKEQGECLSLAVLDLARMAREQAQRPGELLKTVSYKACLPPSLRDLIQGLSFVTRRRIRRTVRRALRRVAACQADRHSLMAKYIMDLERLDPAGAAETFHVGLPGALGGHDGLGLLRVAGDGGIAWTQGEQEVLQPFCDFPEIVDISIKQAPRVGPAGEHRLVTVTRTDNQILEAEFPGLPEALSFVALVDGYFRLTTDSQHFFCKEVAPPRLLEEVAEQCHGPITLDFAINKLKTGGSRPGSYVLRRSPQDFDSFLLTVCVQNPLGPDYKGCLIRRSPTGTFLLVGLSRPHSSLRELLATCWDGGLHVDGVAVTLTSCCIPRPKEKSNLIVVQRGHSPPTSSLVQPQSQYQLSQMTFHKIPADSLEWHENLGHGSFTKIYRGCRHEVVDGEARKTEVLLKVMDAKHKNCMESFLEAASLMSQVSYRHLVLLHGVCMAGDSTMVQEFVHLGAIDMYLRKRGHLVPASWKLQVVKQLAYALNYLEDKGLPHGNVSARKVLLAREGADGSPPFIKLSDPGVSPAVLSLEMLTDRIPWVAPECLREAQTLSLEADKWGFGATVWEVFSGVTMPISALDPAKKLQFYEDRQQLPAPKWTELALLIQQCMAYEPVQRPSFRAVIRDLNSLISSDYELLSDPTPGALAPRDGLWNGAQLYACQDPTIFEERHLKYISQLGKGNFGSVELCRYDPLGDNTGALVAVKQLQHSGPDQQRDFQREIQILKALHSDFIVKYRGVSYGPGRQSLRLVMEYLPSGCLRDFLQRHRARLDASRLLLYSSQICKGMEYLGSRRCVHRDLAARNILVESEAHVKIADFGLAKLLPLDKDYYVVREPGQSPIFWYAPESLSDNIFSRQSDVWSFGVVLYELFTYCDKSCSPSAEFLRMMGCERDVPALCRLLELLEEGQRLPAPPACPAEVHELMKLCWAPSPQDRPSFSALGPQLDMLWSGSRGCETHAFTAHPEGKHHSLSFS
Outline: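 ELISA on Poly(Glu,Ala,Tyr) 6:3:1-coated plates with 2 mM ATP and 5 mM MgCl2. JAK enzyme started the reaction, run 60 min at 30° C. Phosphotyrosine was detected with HRP-conjugated 4G10 antibody and TMB, read at 450 nm, and IC50 was derived from optical densities.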

c-KIT = target: T2, c-KIT (Homo sapiens, UniProt P10721); experiment: Inhibition of c-KIT, radiometric filter-binding assay; format: biochemical; details: 700 μM ATP, 0.5 mg/mL pE4Y, room temperature
T2 construct: 0.02% BSA and 25 nM c-KIT
T2 sequence (P10721 26-976): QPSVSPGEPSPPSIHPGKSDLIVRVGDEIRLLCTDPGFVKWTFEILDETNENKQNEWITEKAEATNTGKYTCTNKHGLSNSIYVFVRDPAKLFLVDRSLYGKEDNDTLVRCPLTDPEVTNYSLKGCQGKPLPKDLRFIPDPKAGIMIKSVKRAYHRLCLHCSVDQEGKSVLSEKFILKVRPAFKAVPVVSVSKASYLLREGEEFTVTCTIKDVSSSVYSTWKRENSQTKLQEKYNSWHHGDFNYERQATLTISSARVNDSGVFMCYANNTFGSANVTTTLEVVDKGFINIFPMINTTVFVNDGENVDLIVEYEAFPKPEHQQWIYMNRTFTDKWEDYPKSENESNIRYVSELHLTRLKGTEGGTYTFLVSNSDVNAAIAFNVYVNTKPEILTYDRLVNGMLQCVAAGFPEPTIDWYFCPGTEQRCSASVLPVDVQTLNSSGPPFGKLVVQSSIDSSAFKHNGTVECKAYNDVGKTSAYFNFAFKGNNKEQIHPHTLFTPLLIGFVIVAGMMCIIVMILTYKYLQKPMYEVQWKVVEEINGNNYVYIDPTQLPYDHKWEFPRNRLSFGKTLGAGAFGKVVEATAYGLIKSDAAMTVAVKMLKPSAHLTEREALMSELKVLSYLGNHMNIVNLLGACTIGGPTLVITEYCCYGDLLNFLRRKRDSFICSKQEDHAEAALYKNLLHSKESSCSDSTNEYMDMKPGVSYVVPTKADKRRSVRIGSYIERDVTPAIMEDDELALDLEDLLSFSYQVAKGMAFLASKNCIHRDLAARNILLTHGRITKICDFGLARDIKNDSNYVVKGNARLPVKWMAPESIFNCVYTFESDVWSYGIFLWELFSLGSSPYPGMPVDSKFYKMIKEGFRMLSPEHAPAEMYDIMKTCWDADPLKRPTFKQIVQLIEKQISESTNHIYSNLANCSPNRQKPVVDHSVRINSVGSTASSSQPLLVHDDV
Outline: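 Radiometric filter-binding: 25 nM c-KIT (enzyme in the Solution 2 mix) with poly(Glu,Tyr) 4:1 substrate at 0.5 mg/mL and [γ-^33P]ATP at 700 μM (both final), in HEPES pH 7.5/MgCl2/NaCl/DTT/BSA with 2.5% DMSO. Incubated 20 min at room temperature, stopped with TCA, and ^33P incorporation counted on filters. 12-point titration, final compound typically 0.01-5 μM; IC50 or Ki from curve fit.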

Q: Which Ki (JAK3) does the source give for `Fc1cccc(-c2cnoc2-c2c[nH]c3ncc(-c4cccnc4)cc23)c1F` [Compound 59, 3-[4-(2,3-Difluoro-phenyl)-isoxazol-5-yl]-5-pyridin-3-yl-1H-pyrrolo[2,3-b]pyridine] here?
A: < 200 nM

Q: What about the Ki (c-KIT) of the same molecule?
A: < 200 nM

Q: With `Fc1cccc(-n2cnnc2-c2c[nH]c3ncc(-c4ccncc4)cc23)c1F` [Compound 114, 3-[4-(2,3-Difluoro-phenyl)-4H-[1,2,4]triazol-3-yl]-5-pyridin-4-yl-1H-pyrrolo[2,3-b]pyridine] as the molecule, how does the Ki (JAK3) read?
A: 1000 to 12500 nM

Q: And the Ki (c-KIT)?
A: < 200 nM
